Laboratory results from PubChem BioAssay AID2296 (NMMLSC, 2010).
pEC50, pKi: −log10 of the molar value.

The molecules below were run against Regulator of G-protein signaling 7 (Homo sapiens) (UniProt P49802) (assay: RGS7-Galphao binding modulators, SAR follow-up, biochemical, multiplexed bead flow cytometry, SAR compounds (AID 2296)). Conditions: bead-based flow cytometry, AF488-Galphao binding to RGS7.
Regulator of G-protein signaling 7 (Homo sapiens), sequence (P49802 whole entry, looked up): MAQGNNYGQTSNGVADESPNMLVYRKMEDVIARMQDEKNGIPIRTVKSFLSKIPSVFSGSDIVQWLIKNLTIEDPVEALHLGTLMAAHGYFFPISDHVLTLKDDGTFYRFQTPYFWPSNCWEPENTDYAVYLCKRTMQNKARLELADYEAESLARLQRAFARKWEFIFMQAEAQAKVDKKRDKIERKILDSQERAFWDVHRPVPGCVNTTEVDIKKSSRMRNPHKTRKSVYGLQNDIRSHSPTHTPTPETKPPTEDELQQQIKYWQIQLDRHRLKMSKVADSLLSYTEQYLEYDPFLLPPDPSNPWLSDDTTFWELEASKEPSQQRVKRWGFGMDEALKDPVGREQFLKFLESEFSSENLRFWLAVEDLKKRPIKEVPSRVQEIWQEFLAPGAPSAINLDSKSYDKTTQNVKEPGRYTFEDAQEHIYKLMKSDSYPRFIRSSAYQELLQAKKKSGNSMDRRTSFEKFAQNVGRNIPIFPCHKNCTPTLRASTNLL

| SMILES | pEC50 |
| --- | --- |
| NS(=O)(=O)c1ccc(N/N=C/c2ccc(O)c(O)c2O)c([N+](=O)[O-])c1 | 6.85 |

Same assay, conditions: bead-based flow cytometry, AF488-Galphao binding to RGS7; measured here: Ki from EC50 fit

| SMILES | pKi |
| --- | --- |
| CN=c1scc(C)n1/N=C/c1ccc(O)c(O)c1O | 6.68 |
| NS(=O)(=O)c1ccc(N/N=C/c2ccc(O)c(O)c2O)c([N+](=O)[O-])c1 | 6.92 |
| O=C1C(Cl)=C(N2CCCCC2)C(=O)C(Cl)=C1c1cnc(N2CCCCC2)s1 | 6.89 |
| O=C(Cc1csc(N2CCOCC2)n1)N/N=C/c1ccc(O)c(O)c1O | 6.44 |
| CN1CCN(C2=C(Cl)C(=O)C(c3cnc(N4CCCCC4)s3)=C(Cl)C2=O)CC1 | 7.15 |
| CCC(=O)NC(c1ccc(C)cc1)c1cc([N+](=O)[O-])c2cccnc2c1O (stereo not drawn) | 5.43 |
| CCN(CC)S(=O)(=O)c1cccc(C(=O)N/N=C/c2ccc(O)c(O)c2O)c1 | 6.49 |
| Cc1[nH]n(-c2ccccc2)c(=S)c1C=NCCCN=Cc1c(C)[nH]n(-c2ccccc2)c1=S | 5.73 |
| Nc1c(C(=O)NCC2CCCO2)sc2nc3c(c(-c4ccco4)c12)CC/C3=C/c1ccco1 (stereo not drawn) | 6.92 |
| CC1(C)OC(=O)C(=Cc2ccc(-c3ccc(S(N)(=O)=O)cc3)o2)C(=O)O1 | 5.80 |
| CCN=c1scc(C)n1/N=C/c1ccc(O)c(O)c1O | 6.42 |
| COc1ccc(C2=CC(=O)C=CC2=O)cc1 | 6.52 |
